Results published in ChEMBL document CHEMBL1201862, “PubChem BioAssay data set” (2004).
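Step 1: Grow cells in 96-well plates. Step 2: Expose to compound for 48 hours at 5 concentrations. Step 3: Interpolate endpoints linearly; if unreached, use highest concentration. GI50 = concentration required for 50% inhibition of growth.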 Active and inactive are the calls of the source. Rule as the data show it: active = GI50 up to about 1.1 µM and inactive = higher.

Assays:
Assay in all cases: NCI tumour cell line growth inhibition, 48 h
[1] = system: 786-0
[2] = system: A498
[3] = system: A549
[4] = system: ACHN
[5] = system: BT-549
[6] = system: CAKI-1
[7] = system: CCRF-CEM
[8] = system: COLO 205
[9] = system: DU-145
[10] = system: EKVX
[11] = system: HCC 2998
[12] = system: HCT-116
[13] = system: HCT-15
[14] = system: HOP-62
[15] = system: HOP-92
[16] = system: HT-29
[17] = system: Hs-578T
[18] = system: IGROV-1
[19] = system: K562
[20] = system: KM12
[21] = system: LOX IMVI
[22] = system: M14
[23] = system: MCF7
[24] = system: MDA-MB-231
[25] = system: MDA-MB-435
[26] = system: MDA-N
[27] = system: MOLT-4
[28] = system: Malme-3M
[29] = system: NCI-H226
[30] = system: NCI-H23
[31] = system: NCI-H460
[32] = system: NCI/ADR-RES
[33] = system: OVCAR-3
[34] = system: OVCAR-4
[35] = system: OVCAR-5
[36] = system: OVCAR-8
[37] = system: PC-3
[38] = system: RPMI-8226
[39] = system: RXF 393
[40] = system: SF-268
[41] = system: SF-295
[42] = system: SF-539
[43] = system: SK-MEL-28
[44] = system: SK-MEL-2
[45] = system: SK-MEL-5
[46] = system: SK-OV-3
[47] = system: SN12C
[48] = system: SNB-19
[49] = system: SNB-75
[50] = system: SR
[51] = system: SW-620
[52] = system: T47D
[53] = system: TK-10
[54] = system: U-251
[55] = system: UACC-257
[56] = system: UACC-62
[57] = system: UO-31

`CN(C)c1ccc(/C=N\NC(=O)c2ccccc2Nc2ccccc2C(=O)N/N=C/c2ccc(N(C)C)cc2)cc1` was tested, and the GI50 [1] was > 100 µM (inactive), the GI50 [2] was > 100 µM (inactive) and the GI50 [3] was > 100 µM (inactive). For the same molecule, the GI50 [4] was > 100 µM (inactive), the GI50 [5] was > 100 µM (inactive) and the GI50 [6] was > 100 µM (inactive). For the same molecule, the GI50 [7] was > 100 µM (inactive), the GI50 [8] was 97.5 µM (inactive) and the GI50 [9] was > 100 µM (inactive). For the same molecule, the GI50 [10] was > 100 µM (inactive), the GI50 [11] was > 100 µM (inactive) and the GI50 [12] was > 100 µM (inactive). The GI50 [13] was > 100 µM, the GI50 [14] was > 100 µM (inactive) and the GI50 [15] was > 100 µM (inactive). For the same molecule, the GI50 [16] was > 100 µM (inactive), the GI50 [17] was > 100 µM (inactive) and the GI50 [18] was > 100 µM (inactive). For the same molecule, the GI50 [19] was > 100 µM (inactive), the GI50 [20] was > 100 µM (inactive) and the GI50 [21] was 92.9 µM (inactive). The GI50 [22] was 31.7 µM (inactive), the GI50 [23] was > 100 µM (inactive) and the GI50 [24] was 23.3 µM (inactive). The GI50 [25] was > 100 µM (inactive), the GI50 [26] was > 100 µM (inactive) and the GI50 [27] was > 100 µM (inactive). The GI50 [28] was 38.5 µM (inactive), the GI50 [29] was > 100 µM (inactive) and the GI50 [30] was > 100 µM (inactive). The GI50 [31] was > 100 µM (inactive), the GI50 [32] was > 100 µM (inactive) and the GI50 [33] was > 100 µM (inactive). For the same molecule, the GI50 [34] was > 100 µM (inactive), the GI50 [35] was 28.5 µM (inactive) and the GI50 [36] was > 100 µM (inactive). The GI50 [37] was > 100 µM (inactive), the GI50 [38] was > 100 µM (inactive) and the GI50 [39] was > 100 µM (inactive). For the same molecule, the GI50 [40] was > 100 µM (inactive), the GI50 [41] was > 100 µM (inactive) and the GI50 [42] was 20 µM (inactive). The GI50 [43] was 90.4 µM (inactive), the GI50 [44] was > 100 µM (inactive) and the GI50 [45] was 57 µM (inactive). The GI50 [46] was > 100 µM (inactive), the GI50 [47] was > 100 µM (inactive) and the GI50 [48] was > 100 µM (inactive). The GI50 [49] was > 100 µM (inactive), the GI50 [50] was > 100 µM (inactive) and the GI50 [51] was > 100 µM (inactive). The GI50 [52] was > 100 µM (inactive), the GI50 [53] was > 100 µM (inactive) and the GI50 [54] was > 100 µM (inactive). The GI50 [55] was > 100 µM (inactive), the GI50 [56] was > 100 µM (inactive) and the GI50 [57] was > 100 µM (inactive).
